Results reported in patent publication US20210130339A1, “COMPOUNDS” (GLAXOSMITHKLINE INTELLECTUAL PROPERTY DEVELOPMENT LIMITED, priority 2017, published 2021).
Values joined by “and” are separate entries in the source; they are usually repeats but may differ in a detail not shown here. Equal values may be shown once.

Tests used:
[1] = molecular target: T1, recombinant full length LRRK2 (Homo sapiens, UniProt Q5S007); assay: Recombinant cellular LRRK2 AlphaScreen assay; format: cell-based; conditions: LRRK2 Ser935 phosphorylation, SH-SY5Y cells over-expressing recombinant full length LRRK2; read-out: pIC50 in the recombinant cellular LRRK2 AlphaScreen assay (converted)
T1 construct: A BacMam virus expressing full length recombinant LRRK2 was purchased from Invitrogen; host or cells: SH-SY5Y human neuroblastoma cells transduced with BacMam LRRK2 virus (MOI 50)
T1 sequence (Q5S007 whole entry): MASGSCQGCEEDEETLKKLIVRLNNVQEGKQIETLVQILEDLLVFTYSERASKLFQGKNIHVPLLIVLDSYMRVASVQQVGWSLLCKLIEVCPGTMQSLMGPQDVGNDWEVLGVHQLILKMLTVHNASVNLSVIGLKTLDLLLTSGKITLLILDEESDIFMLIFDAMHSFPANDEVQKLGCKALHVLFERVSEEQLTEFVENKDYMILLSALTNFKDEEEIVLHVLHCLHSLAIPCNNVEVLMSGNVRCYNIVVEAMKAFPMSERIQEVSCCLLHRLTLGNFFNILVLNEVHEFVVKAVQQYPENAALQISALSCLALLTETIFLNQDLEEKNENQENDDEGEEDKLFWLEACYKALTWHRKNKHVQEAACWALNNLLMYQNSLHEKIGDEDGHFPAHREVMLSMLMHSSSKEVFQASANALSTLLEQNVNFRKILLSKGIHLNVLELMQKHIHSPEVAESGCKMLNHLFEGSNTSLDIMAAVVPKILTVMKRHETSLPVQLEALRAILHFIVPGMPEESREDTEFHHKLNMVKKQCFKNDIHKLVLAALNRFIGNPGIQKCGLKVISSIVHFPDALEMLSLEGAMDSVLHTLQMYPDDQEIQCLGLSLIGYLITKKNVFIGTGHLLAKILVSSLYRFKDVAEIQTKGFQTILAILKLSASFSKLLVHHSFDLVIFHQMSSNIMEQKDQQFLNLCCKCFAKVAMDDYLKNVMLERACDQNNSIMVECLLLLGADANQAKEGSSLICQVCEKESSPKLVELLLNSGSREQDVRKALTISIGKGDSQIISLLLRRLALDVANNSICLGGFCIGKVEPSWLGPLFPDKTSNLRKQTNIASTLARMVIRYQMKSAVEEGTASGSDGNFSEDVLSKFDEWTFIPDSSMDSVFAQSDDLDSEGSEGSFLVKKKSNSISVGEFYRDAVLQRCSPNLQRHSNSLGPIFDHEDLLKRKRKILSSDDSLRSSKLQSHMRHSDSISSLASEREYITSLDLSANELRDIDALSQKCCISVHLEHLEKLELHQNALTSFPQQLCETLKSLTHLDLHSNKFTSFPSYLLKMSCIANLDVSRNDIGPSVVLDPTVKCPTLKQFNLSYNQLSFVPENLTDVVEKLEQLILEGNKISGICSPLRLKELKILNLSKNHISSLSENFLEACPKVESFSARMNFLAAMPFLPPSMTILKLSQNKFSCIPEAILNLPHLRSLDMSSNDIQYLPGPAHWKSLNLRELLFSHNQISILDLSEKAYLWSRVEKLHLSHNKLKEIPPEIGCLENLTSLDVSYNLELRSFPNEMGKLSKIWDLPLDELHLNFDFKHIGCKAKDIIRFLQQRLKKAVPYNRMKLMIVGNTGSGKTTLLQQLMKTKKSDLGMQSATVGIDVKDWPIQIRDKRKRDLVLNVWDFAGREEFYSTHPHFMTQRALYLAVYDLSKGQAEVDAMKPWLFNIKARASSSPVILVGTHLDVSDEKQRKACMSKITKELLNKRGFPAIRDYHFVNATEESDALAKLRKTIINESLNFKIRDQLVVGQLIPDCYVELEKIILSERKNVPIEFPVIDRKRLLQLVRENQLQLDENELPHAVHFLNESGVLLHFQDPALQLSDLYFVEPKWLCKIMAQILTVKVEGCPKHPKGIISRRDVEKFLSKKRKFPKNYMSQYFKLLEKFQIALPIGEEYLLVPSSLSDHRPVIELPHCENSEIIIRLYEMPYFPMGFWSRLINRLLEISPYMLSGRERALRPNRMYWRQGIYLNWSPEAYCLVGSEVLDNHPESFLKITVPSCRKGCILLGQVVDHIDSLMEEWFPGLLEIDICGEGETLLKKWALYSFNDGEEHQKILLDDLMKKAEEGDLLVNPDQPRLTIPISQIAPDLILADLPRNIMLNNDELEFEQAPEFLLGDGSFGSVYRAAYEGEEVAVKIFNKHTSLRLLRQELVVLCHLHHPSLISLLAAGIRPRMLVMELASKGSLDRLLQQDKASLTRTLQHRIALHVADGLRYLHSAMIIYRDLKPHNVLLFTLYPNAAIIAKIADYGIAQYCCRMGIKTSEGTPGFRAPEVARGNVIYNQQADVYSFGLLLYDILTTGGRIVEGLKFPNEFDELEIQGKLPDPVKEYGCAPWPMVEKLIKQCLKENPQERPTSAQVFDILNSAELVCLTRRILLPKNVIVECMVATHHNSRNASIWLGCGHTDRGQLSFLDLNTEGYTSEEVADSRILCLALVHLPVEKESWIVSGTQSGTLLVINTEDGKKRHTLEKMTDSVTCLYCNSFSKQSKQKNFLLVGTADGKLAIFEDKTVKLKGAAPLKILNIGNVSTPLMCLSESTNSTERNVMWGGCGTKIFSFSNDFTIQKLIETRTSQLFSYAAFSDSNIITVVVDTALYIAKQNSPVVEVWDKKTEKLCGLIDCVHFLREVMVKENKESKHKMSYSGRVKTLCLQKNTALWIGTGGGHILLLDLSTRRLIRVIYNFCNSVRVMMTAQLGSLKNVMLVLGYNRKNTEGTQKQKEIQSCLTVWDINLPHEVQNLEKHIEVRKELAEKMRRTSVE
Summary of the method: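 SH-SY5Y neuroblastoma cells transduced with BacMam full-length human LRRK2 (MOI 50, 24 h) were treated with compounds for 60 min at 37 °C, top final 10 µM. Lysates probed by AlphaScreen for pSer935 versus total LRRK2; sigmoidal dose-response fit.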

[2] = molecular target: T2, Full length G2019 human LRRK2 (Homo sapiens, UniProt Q5S007); assay: Full length G2019 human LRRK2 Inhibition Mass Spectrometry assay; format: biochemical; conditions: LRRKtide substrate, RapidFire mass spectrometry; read-out: pIC50 in the Full length G2019 human LRRK2 Inhibition Mass Spectrometry assay (converted)
T2 construct: purified recombinant Full length Flag-LRRK2 in assay buffer; made in house; host or cells: HEK293 6E cells transduced with BacMam virus (virus generated in Sf9 cells)
T2 sequence (Q5S007 with tags, fused parts or gaps R50H): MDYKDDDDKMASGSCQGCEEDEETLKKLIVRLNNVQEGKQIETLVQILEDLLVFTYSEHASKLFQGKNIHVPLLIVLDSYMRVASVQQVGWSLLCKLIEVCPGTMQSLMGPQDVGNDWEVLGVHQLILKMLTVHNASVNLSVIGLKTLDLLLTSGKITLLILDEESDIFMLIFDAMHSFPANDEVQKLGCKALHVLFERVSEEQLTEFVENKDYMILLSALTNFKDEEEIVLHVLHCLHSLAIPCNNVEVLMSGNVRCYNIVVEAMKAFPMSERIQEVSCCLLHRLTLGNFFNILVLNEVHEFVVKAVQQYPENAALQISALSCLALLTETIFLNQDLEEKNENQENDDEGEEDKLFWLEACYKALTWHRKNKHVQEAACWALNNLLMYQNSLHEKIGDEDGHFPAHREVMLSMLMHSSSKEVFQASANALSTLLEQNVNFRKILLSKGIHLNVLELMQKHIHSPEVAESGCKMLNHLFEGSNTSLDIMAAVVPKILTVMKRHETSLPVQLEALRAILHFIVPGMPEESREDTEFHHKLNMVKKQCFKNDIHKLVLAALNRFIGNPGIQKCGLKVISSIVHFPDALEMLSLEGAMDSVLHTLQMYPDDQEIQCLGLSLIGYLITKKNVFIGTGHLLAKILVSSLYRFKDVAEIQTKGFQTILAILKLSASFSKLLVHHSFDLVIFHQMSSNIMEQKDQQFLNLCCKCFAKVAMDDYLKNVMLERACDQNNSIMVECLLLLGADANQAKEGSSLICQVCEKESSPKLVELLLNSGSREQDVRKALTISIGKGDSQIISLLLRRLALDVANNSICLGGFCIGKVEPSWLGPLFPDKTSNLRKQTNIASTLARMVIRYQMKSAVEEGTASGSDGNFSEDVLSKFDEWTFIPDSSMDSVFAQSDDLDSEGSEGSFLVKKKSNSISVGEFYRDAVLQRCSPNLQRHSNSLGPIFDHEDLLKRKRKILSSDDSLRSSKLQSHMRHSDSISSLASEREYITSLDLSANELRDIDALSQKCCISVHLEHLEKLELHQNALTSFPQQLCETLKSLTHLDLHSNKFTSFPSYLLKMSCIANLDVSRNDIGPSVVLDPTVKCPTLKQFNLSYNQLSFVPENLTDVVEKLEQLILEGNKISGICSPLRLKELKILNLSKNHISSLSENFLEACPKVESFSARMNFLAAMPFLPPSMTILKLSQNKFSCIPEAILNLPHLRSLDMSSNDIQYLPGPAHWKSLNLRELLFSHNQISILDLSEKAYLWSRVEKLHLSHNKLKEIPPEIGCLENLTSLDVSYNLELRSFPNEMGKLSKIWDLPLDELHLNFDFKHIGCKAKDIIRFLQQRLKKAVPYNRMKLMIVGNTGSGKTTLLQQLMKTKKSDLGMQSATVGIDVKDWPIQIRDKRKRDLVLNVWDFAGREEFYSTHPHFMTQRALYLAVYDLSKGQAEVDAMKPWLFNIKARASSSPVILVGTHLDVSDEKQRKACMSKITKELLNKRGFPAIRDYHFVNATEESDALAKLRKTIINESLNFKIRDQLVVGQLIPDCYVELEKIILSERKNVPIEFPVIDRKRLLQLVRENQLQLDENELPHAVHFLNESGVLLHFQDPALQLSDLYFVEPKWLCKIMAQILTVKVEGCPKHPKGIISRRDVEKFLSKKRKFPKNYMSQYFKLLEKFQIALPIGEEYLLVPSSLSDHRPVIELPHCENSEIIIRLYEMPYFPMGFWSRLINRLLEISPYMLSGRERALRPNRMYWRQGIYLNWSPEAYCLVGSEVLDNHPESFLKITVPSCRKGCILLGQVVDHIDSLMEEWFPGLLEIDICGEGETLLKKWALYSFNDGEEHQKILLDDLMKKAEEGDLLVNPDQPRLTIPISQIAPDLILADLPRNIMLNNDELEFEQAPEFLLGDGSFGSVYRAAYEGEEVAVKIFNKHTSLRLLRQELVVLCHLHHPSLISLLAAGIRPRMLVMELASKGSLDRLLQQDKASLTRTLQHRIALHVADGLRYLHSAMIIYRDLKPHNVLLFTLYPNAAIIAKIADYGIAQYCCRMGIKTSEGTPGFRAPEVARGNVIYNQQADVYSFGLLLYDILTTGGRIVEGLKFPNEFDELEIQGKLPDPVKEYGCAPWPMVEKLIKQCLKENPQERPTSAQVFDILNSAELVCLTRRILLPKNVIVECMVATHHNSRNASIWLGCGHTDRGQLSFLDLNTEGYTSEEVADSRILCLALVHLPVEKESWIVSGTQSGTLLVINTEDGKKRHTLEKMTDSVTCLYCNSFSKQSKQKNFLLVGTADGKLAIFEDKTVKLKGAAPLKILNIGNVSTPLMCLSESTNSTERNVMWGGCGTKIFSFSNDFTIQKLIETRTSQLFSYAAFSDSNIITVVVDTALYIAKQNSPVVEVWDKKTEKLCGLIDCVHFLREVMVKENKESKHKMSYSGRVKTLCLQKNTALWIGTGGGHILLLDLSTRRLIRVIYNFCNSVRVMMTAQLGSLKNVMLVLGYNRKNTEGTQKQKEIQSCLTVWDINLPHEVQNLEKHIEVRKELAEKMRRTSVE
Description: a. Full Length G2019 Human LRRK2 Inhibition Mass Spectrometry Assay
This assay for Leucine Rich Repeat Kinase 2 (LRRK2) inhibition is based on the direct measurement of the peptide ‘LRRKtide’ (LRRKtide: RLGRDKYKT*LRQIRQ and “*” refers to the site of phosphorylation.) and phosphorylated ‘LRRKtide’ using a high throughput RapidFire mass spectrometry assay. Inhibitors are compounds that reduce the conversion of LRRKtide to phospho-LRRKtide.
HEK293 6E cells were incubated in a 37° C. incubator with a humidified atmosphere of 5% CO2 on an orbital shaker rotating at 110 rpm. On the day of transduction, the cell viability was higher than 98% and the cell density was in the range of 1×10^6˜1.5×10^6 cells/ml. HEK293 6E cells were centrifuged at 1,000 rpm for 10 min, and then the cells were resuspended in fresh Freestyle 293 expression medium (Invitrogen:12338) with 0.1% F-68 (Invitrogen:24040-032) but without antibiotics (G418) at density of 1×10^6 cells/ml. BacMam virus with Flag-hu LRRK2 (genotypically normal) gene was centrifuged at 40,000 g for 2 hours, then resuspended in fresh Freestyle 293 expression medium. The resuspended virus was added into the cells in at MOI of 10. The cells were incubated in a 37° C. incubator with a humidified atmosphere of 5% CO2 in air on an orbital shaker rotating at 110 rpm. Cultures were harvested at approximately 48 hours post-transduction by centrifugation at 4,000 rpm for 20 min and pellets were frozen for purification.
The suspended cells were lysed by sonication on ice for 30 min (2 secs on/4 sec off, 20% amplitude), and centrifuged at 10,000 rpm for 30 minutes at 4° C. The supernatant was incubated with 1 mL per litre of cell culture of anti-Flag magnetic beads (Sigma-Aldrich: M8823) at 4° C. for 3 hours, then the beads were washed by 5 mL (5 column volume) binding buffer (50 mM Tris pH7.5@ 4C, 500 mM NaCl, 0.5 mM EDTA, 0.1% TritonX-100, 10% glycerol, freshly add 2 mM DTT) for three times. The Flag tagged LRRK2 proteins were eluted by Elution buffer (50 mM Tris pH7.5@ 4C, 500 mM NaCl, 0.5 mM EDTA, 0.1% TritonX-100, 10% glycerol, freshly add 2 mM DTT, 250 ug/ml Flag peptide (Sigma-Aldrich:F3290)) at 4° C. for 2 hours. Flag peptide was removed by Zeba Spin Desalting Columns, 7K MWCO (Thermo-Fisher: 89893) and the buffer of eluted LRRK2 proteins was exchanged into Storage Buffer (50 mM Tris pH7.5@4C, 150 mM NaCl, 0.5 mM EDTA, 0.02% Triton X-100, 2 mM DTT and 50% Glycerol) using Amicon Ultra Centrifugal Filter Units (100 kD) (Merck: UFC910096). Fractions containing LRRK2 proteins were pooled, aliquoted and stored at −80° C. Protein concentration was determined by Bradford protein assay, and protein purity was analyzed by NuPAG Novex 4-12% Bis-Tris Protein Gels (Invitrogen: NP0322BOX).
• 1) A 10 mM test compound was dissolved in 100% DMSO and serially diluted 1 in 4. 100 nL of this dilution series was then added to a 384 well, v bottom polypropylene plate, excluding columns 6 and 18. 100 nL of DMSO was added to columns 6 and 18 as controls wells. Assay dilution gave a top final assay concentration of test compound of 100 μM • 2) 50 μl of 1% formic acid in laboratory grade water was added to column 18 using a multidrop combi dispenser to act as a pre stopped assay control. • 3) 5 μl of ‘enzyme solution’ containing 50 nM of purified recombinant Full length Flag-LRRK2 in assay buffer (50 mM Hepes (pH 7.2), 10 mM MgCl2, 150 mM NaCl, 5% glycerol, 0.0025% triton X-100 and 1 mM DTT) was added to all wells using a multidrop combi dispenser, giving a final assay concentration of 25 nM LRRK2 enzyme. […] Test plates were then incubated for 30 minutes at room temperature. • 4) 5 μl ‘substrate solution’ containing 50 uM LRRKtide peptide substrate and 4 mM ATP was added to all wells of the plate using a multidrop combi dispenser giving a final assay concentration of 25 uM LRRKtide and 2 mM ATP. Test plates were then incubated for 1 hour at room temperature. […]

| Compound | IC50 [1] | IC50 [2] |
| --- | --- | --- |
| COc1nc(N2CCO[C@@H](CO)C2)cc(-n2ncc3cc(C)c(C4CCN(C5CCOC5)CC4F)cc32)n1 (single isomer, unassigned) [Example E118] | ≤ 10 nM | ≤ 10 nM |
| Cc1nc(N[C@H]2C[C@@H](O)C2)cc(-n2ncc3cc(C)c(C4CCN(C5CCOC5)CC4)cc32)n1 (single isomer, unassigned) [Example E133, Cis-3-((2-methyl-6-(5-methyl-6-(1-(tetrahydrofuran-3-yl)piperidin-4-yl)-1H-indazol-1-yl)pyrimidin-4-yl)amino)cyclobutanol] | ≤ 1000 nM | ≤ 1000 nM |
| COc1nc(N2CCO[C@@H](CO)C2)cc(-n2ncc3cc(C)c(C4CCN(C5CCOC5)CC4F)cc32)n1 (single isomer, unassigned) [Example E120] | ≤ 10 nM | ≤ 10 nM |
| COc1nc(N2CCO[C@@H](CO)C2)cc(-n2ncc3cc(C)c(C4CCN(C5CCOC5)CC4F)cc32)n1 (single isomer, unassigned) [Example E119] | ≤ 100 nM | ≤ 100 nM |
| Cc1nc(N2CCO[C@@H](CO)C2)cc(-n2ncc3cc(Cl)c(C4CCN(C5CCOC5)CC4)cc32)n1 (single isomer, unassigned) [Example E130] | ≤ 100 nM | ≤ 100 nM |
| Cc1nc(N2CCO[C@H](CO)C2)cc(-n2ncc3cc(C)c(C4CCN(C5CCOC5)CC4F)cc32)n1 (single isomer, unassigned) [Example E106] | ≤ 1000 nM | ≤ 100 nM |
| Cc1nc(N2CCO[C@H](CO)C2)cc(-n2ncc3cc(C)c(C4CCN(C5CCOC5)CC4)cc32)n1 (single isomer, unassigned) [Example E1] | ≤ 100 nM and 126 nM | 79.4 nM |
| COc1nc(N2CCOCC2)cc(-n2ncc3cc(C)c(C4CCN(C5CCOC5)CC4F)cc32)n1 (single isomer, unassigned) [Example E126, 4-(6-(6-(3-fluoro-1-(tetrahydrofuran-3-yl)-piperidin-4-yl)-5-methyl-1H-indazol-1-yl)-2-methoxypyrimidin-4-yl)morpholine] | ≤ 100 nM | ≤ 100 nM |
| COc1nc(N2CC(O)C2)cc(-n2ncc3cc(Cl)c(C4CCN(C5CCOC5)CC4)cc32)n1 (single isomer, unassigned) [Example E30, 1-(6-(5-Chloro-6-(1-(tetrahydrofuran-3-yl)piperidin-4-yl)-1H-indazol-1-yl)-2-methoxy-pyrimidin-4-yl)azetidin-3-ol] | ≤ 100 nM | ≤ 1000 nM |
| [2H]c1nn(-c2cc(N3CCO[C@@H](CO)C3)nc(C)n2)c2cc(C3CCN([C@H]4CCOC4)CC3)c(C)cc12 [Example E95, ((R)-4-(6-(3-deuterium-5-methyl-6-(1-((S)-tetrahydrofuran-3-yl)piperidin-4-yl)-1H-indazol-1-yl)-2-methylpyrimidin-4-yl)morpholin-2-yl)methanol] | ≤ 1000 nM | ≤ 100 nM and 39.8 nM |
| COc1nc(N2CCOCC2)cc(-n2ncc3cc(C)c(C4CCN(C5CCOC5)CC4F)cc32)n1 (single isomer, unassigned) [Example E125, 4-(6-(6-(3-fluoro-1-(tetrahydrofuran-3-yl)-piperidin-4-yl)-5-methyl-1H-indazol-1-yl)-2-methoxypyrimidin-4-yl)morpholine] | ≤ 10 nM | ≤ 1000 nM |
| Cc1nc(N2CCO[C@@H](CO)C2)cc(-n2ncc3cc(C)c(C4CCN([C@H]5CCOC5)CC4)cc32)n1 (single isomer, unassigned) [Example E4] | 100 nM | 25.1 nM |
